Among the data in US11420973B2, “Amide substituted indole compounds useful as TLR inhibitors” (BRISTOL-MYERS SQUIBB COMPANY, priority 2017, dated 2022) are IC50 values, retold here.

One assay addresses human TLR7 (Homo sapiens (Human), UniProt Q9NYK1). Put plainly: TLR7 inhibition reporter assay (HEK-Blue SEAP reporter, gardiquimod stimulation). Type of assay: cell-based. To be noted: HEK-Blue cells overexpressing human TLR7, gardiquimod 7.5 μM. A general note: In a reporter assay the amount or activity of a reporter protein is the signal.
The target in a further assay is human TLR8 (Homo sapiens (Human), UniProt Q9NR97). The assay is described as follows: TLR8 inhibition reporter assay (HEK-Blue SEAP reporter, R848 stimulation).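 Further: SEAP driven by IFN-β minimal promoter with NF-κB and AP-1 sites, 22 h incubation, compounds 0.05 nM–50 µM, inhibition scaled between agonist plus DMSO and reference inhibitor wells.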
A further assay has as its target human TLR9 (Homo sapiens (Human), UniProt Q9NR96). The assay is described as follows: TLR9 inhibition reporter assay (HEK-Blue SEAP reporter, ODN2006 stimulation).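 Further: SEAP reporter under IFN-β minimal promoter with five NF-κB and AP-1 sites, 22 h incubation, compounds 0.05 nM–50 µM, inhibition relative to agonist plus DMSO versus known inhibitor.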
Setting [1] is: read-out: TLR8 IC50, HEK-Blue cells overexpressing human TLR8, R848 15.9 μM, SEAP reporter.
Where [2] appears, read: read-out: TLR9 IC50, HEK-Blue cells overexpressing human TLR9, ODN2006 5 nM, SEAP reporter.

As a reminder, the IC50 is the concentration that gives 50% inhibition.

Where a name gives a salt, the structure may show the parent alone. Read-outs that look alike come from different tables or passages of the source. Bounds are passed on as bounds.

human TLR8, sequence (Q9NR97 27-1041): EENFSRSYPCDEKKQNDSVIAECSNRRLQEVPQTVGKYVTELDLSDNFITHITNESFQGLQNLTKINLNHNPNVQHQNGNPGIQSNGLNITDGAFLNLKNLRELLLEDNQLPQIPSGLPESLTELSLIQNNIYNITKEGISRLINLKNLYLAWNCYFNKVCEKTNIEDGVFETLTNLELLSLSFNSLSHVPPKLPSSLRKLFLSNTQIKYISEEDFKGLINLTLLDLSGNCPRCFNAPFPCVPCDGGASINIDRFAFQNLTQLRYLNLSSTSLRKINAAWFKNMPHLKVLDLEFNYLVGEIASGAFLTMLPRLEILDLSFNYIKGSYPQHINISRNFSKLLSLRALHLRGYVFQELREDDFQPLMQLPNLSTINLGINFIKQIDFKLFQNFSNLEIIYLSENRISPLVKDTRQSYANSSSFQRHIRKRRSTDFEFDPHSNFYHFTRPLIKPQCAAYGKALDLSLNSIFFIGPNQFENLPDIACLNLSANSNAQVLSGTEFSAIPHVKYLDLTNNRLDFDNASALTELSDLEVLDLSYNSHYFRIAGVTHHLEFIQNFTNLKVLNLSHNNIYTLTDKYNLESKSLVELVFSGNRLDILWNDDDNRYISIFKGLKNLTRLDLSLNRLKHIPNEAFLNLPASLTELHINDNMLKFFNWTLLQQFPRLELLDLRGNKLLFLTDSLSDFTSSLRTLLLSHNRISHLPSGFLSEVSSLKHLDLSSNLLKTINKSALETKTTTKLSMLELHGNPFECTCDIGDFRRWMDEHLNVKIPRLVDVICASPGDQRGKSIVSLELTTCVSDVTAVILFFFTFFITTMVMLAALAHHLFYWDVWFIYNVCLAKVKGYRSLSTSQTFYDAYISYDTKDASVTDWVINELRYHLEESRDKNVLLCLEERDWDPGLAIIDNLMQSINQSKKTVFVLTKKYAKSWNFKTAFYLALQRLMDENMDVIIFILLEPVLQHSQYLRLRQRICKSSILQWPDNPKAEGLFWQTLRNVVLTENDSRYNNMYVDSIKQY
human TLR9, sequence (Q9NR96 26-1032): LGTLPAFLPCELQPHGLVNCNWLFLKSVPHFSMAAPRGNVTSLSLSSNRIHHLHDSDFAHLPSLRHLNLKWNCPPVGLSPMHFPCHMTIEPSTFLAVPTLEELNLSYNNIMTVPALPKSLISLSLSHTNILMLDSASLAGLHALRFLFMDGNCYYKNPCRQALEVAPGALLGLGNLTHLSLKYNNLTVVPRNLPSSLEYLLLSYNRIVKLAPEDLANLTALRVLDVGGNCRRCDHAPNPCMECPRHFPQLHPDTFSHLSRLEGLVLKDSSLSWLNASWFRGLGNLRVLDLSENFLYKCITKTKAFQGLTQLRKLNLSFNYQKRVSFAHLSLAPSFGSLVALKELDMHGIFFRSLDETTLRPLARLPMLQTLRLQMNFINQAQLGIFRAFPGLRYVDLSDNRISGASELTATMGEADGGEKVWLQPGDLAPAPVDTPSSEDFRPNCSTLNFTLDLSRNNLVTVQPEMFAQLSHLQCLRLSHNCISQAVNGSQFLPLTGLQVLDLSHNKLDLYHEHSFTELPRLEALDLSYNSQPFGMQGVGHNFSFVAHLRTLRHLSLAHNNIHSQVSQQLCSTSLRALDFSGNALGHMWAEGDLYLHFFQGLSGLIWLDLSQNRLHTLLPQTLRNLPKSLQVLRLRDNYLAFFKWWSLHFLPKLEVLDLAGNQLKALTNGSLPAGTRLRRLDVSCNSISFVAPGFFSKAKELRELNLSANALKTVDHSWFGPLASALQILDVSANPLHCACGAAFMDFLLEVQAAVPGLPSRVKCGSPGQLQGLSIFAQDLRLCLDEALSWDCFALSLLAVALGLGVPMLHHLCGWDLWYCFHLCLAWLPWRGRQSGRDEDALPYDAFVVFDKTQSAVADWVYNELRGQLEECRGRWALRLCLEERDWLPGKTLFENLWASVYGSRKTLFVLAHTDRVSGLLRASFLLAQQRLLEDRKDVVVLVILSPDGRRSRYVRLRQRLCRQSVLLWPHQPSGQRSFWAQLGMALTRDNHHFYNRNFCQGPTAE
human TLR7, sequence (Q9NYK1 27-1049): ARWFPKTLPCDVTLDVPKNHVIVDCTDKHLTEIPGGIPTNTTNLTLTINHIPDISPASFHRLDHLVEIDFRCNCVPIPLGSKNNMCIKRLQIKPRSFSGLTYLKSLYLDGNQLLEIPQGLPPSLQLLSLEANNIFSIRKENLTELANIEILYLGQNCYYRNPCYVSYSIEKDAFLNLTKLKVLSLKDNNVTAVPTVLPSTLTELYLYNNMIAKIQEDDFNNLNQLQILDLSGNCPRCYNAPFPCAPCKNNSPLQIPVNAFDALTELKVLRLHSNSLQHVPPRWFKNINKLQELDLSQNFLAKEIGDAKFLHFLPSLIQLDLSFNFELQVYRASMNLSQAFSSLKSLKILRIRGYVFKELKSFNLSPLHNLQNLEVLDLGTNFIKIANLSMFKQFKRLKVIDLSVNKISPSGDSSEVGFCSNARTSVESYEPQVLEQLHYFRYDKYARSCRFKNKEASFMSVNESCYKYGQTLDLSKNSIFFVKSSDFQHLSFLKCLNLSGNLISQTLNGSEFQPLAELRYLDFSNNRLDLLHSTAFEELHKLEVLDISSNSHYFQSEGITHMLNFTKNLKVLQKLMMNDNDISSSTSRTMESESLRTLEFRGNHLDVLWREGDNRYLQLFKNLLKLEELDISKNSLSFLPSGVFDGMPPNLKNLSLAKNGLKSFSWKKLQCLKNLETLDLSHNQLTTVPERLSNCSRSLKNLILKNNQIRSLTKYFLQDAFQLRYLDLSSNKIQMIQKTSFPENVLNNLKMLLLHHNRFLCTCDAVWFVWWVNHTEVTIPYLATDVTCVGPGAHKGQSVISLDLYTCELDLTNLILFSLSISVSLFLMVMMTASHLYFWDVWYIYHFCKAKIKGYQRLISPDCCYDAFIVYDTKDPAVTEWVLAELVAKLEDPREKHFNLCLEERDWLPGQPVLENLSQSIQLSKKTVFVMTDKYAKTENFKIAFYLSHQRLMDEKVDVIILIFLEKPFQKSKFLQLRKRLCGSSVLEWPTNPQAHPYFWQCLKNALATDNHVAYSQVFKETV

Turning to `CCc1c(-c2ccnc(C)c2)[nH]c2ccc(C(=O)N(CC)CCN(C)C)cc12` [Example 84, N-(2-(dimethylamino)ethyl)-N,3-diethyl-2-(2-methylpyridin-4-yl)-1H-indole-5-carboxamide], the IC50 stood at 49 nM against human TLR7, 2.1 nM at human TLR8 (setting [1]) and 2520 nM at human TLR9 (setting [2]).

As to `CCc1c(-c2ccnc(C)c2)[nH]c2ccc(C(=O)N3CC4CNCC4C3)cc12` (stereo not drawn) [Example 85, (3-ethyl-2-(2-methylpyridin-4-yl)-1H-indol-5-yl)(hexahydropyrrolo[3,4-c]pyrrol-2(1H)-yl)methanone], the IC50 at human TLR7 was determined as 776 nM; on human TLR8 (setting [1]) it was 160 nM; on human TLR9 (setting [2]) it was 386 nM.

With `CCc1c(-c2ccnc(C)c2)[nH]c2ccc(C(=O)N3CC4CN(C(C)C)CC4C3)cc12` (stereo not drawn) [Example 86, (3-ethyl-2-(2-methylpyridin-4-yl)-1H-indol-5-yl)(5-isopropylhexahydropyrrolo[3,4c]pyrrol-2(1H)-yl)methanone], the IC50 against human TLR7 was 469 nM; on human TLR8 (setting [1]), 28 nM; on human TLR9 (setting [2]), 1570 nM.

As for `CC(C)c1c(-c2ccnc(N)c2)[nH]c2ccc(C(=O)NC3CCC(N(C)C)CC3)cc12` (stereo not drawn) [Example 87, 2-(2-aminopyridin-4-yl)-N-(4-(dimethylamino)cyclohexyl)-3-isopropyl-1H-indole-5-carboxamide], the results for the IC50 against human TLR7, at human TLR8 (setting [1]) and on human TLR9 (setting [2]) were 1050 nM, 27 nM and 438 nM, respectively.

Consider `COc1ccc(-c2[nH]c3ccc(C(=O)N4CC5CNCC5C4)cc3c2CC(F)(F)F)cc1OC` (stereo not drawn) [Example 88, (2-(3,4-dimethoxyphenyl)-3-(2,2,2-trifluoroethyl)-1H-indol-5-yl)(hexahydropyrrolo[3,4-c]pyrrol-2(1H)-yl)methanone hydrochloride], for which the IC50 against human TLR7 amounted to 401 nM; against human TLR8 it was 278 nM; against human TLR9, 593 nM.

Regarding `COc1ccc(-c2[nH]c3ccc(C(=O)N4CC5CN(C(=O)CN(C)C)CC5C4)cc3c2CC(F)(F)F)cc1OC` (stereo not drawn) [Example 89, 1-(5-(2-(3,4-dimethoxyphenyl)-3-(2,2,2-trifluoroethyl)-1H-indole-5-carbonyl)hexahydropyrrolo[3,4-c]pyrrol-2(1H)-yl)-2-(dimethylamino)ethan-1-one], the half-maximal inhibitory concentration (IC50) on human TLR7 worked out at 914 nM; at human TLR8 (setting [1]), 217 nM; at human TLR9 (setting [2]), 5860 nM.

As to `COc1ccc(-c2[nH]c3ccc(C(=O)N4CC5CN(CC(=O)N(C)C)CC5C4)cc3c2CC(F)(F)F)cc1OC` (stereo not drawn) [Example 90, 2-(5-(2-(3,4-dimethoxyphenyl)-3-(2,2,2-trifluoroethyl)-1H-indole-5-carbonyl)hexahydropyrrolo[3,4-c]pyrrol-2(1H)-yl)-N,N-dimethylacetamide], the IC50 against human TLR7 is 866 nM; on human TLR8 (setting [1]), 344 nM; on human TLR9 (setting [2]), 4050 nM.

Regarding `Cc1cc(-c2[nH]c3ccc(C(=O)NC4CCN(C(C)C)CC4)cc3c2C(C)C)cc(C)n1` [Example 91, 2-(2,6-dimethylpyridin-4-yl)-3-isopropyl-N-(1-isopropylpiperidin-4-yl)-1H-indole-5-carboxamide], the IC50 came to 9.2 nM against human TLR7, 2.1 nM at human TLR8 (setting [1]) and 670 nM at human TLR9 (setting [2]).

Turning to `Cc1cc(-c2[nH]c3ccc(C(=O)N4CCCN(C)CC4)cc3c2C(C)C)cc(C)n1` [Example 92, (2-(2,6-dimethylpyridin-4-yl)-3-isopropyl-1H-indol-5-yl)(4-methyl-1,4-diazepan-1-yl)methanone], the values for the IC50 against human TLR7, at human TLR8 (setting [1]) and at human TLR9 (setting [2]) were 32 nM, 3.2 nM and 2470 nM, respectively.

With `CCN(CCN(C)C)C(=O)c1ccc2[nH]c(-c3cc(C)nc(C)c3)c(C(C)C)c2c1` [Example 93, N-(2-(dimethylamino)ethyl)-2-(2,6-dimethylpyridin-4-yl)-N-ethyl-3-isopropyl-1H-indole-5-carboxamide], the IC50 was 2.9 nM against human TLR7, 1.4 nM on human TLR8 (setting [1]) and 594 nM at human TLR9 (setting [2]).

As for `Cc1cc(-c2[nH]c3ccc(C(=O)N(C)C)cc3c2C(C)C)cc(C)n1` [Example 94, 2-(2,6-dimethylpyridin-4-yl)-3-isopropyl-N,N-dimethyl-1H-indole-5-carboxamide], the IC50 at human TLR7 is 18 nM; on human TLR8 (setting [1]), 23 nM; on human TLR9 (setting [2]), over 50000 nM.

With `Cc1cc(-c2[nH]c3ccc(C(=O)NCCCN(C)C)cc3c2C(C)C)cc(C)n1` [Example 95, N-(3-(dimethylamino)propyl)-2-(2,6-dimethylpyridin-4-yl)-3-isopropyl-1H-indole-5-carboxamide], the values for the IC50 against human TLR7, at human TLR8 (setting [1]) and on human TLR9 (setting [2]) were 50 nM, 3.6 nM and 516 nM, respectively.

`Cc1cc(-c2[nH]c3ccc(C(=O)NCCN(C)C)cc3c2C(C)C)cc(C)n1` [Example 96, N-(2-(dimethylamino)ethyl)-2-(2,6-dimethylpyridin-4-yl)-3-isopropyl-1H-indole-5-carboxamide]: the IC50 amounted to 75 nM against human TLR7, 7.3 nM on human TLR8 (setting [1]) and 1500 nM on human TLR9 (setting [2]).

Take `CNC(=O)c1ccc2[nH]c(-c3cc(C)nc(C)c3)c(C(C)C)c2c1` [Example 97, 2-(2,6-dimethylpyridin-4-1)-3-isopropyl-N-methyl-1H-indole-5-carboxamide]: the results for the IC50 against human TLR7, at human TLR8 (setting [1]) and at human TLR9 (setting [2]) were 45 nM, 30 nM and over 50000 nM, respectively.

Regarding `Cc1cc(-c2[nH]c3ccc(C(=O)N4CCN(Cc5ncn(C)n5)CC4)cc3c2C(C)C)cc(C)n1` [Example 98, (2-(2,6-dimethylpyridin-4-yl)-3-isopropyl-1H-indol-5-yl)(4-((1-methyl-1H-1,2,4-triazol-3-yl)methyl)piperazin-1-yl)methanone], the IC50 against human TLR7 was 82 nM; at human TLR8 (setting [1]) it was 45 nM; on human TLR9 (setting [2]), over 50000 nM.

As for `Cc1cc(-c2[nH]c3ccc(C(=O)N(C)Cc4ccccc4)cc3c2C(C)C)cc(C)n1` [Example 99, N-benzyl-2-(2,6-dimethylpyridin-4-yl)-3-isopropyl-N-methyl-1H-indole-5-carboxamide], the IC50 against human TLR7 was found to be 201 nM; on human TLR8 (setting [1]) it was 481 nM; on human TLR9 (setting [2]) it was 1830 nM.

Consider `Cc1cc(-c2[nH]c3ccc(C(=O)N(C)Cc4cccnc4)cc3c2C(C)C)cc(C)n1` [Example 100, 2-(2,6-dimethylpyridin-4-yl)-3-isopropyl-N-methyl-N-(pyridin-3-ylmethyl)-1H-indole-5-carboxamide], for which the IC50 against human TLR7 was 46 nM; at human TLR8 (setting [1]), 320 nM; on human TLR9 (setting [2]), over 50000 nM.

As for `Cc1cc(-c2[nH]c3ccc(C(=O)N(C)C4CCN(C)CC4)cc3c2C(C)C)cc(C)n1` [Example 101, 2-(2,6-dimethylpyridin-4-yl)-3-isopropyl-N-methyl-N-(1-methylpiperidin-4-yl)-1H-indole-5-carboxamide], the IC50 on human TLR7 was found to be 1.9 nM; at human TLR8 (setting [1]) it was 0.34 nM; at human TLR9 (setting [2]) it was 776 nM.

For the compound `Cc1cc(-c2[nH]c3ccc(C(=O)N(C)CCc4ccccc4)cc3c2C(C)C)cc(C)n1` [Example 102, 2-(2,6-dimethylpyridin-4-yl)-3-isopropyl-N-methyl-N-phenethyl-1H-indole-5-carboxamide], the IC50 at human TLR7 is 185 nM; at human TLR8 (setting [1]), 418 nM; at human TLR9 (setting [2]) it was 5060 nM.

For `Cc1cc(-c2[nH]c3ccc(C(=O)N(C)Cc4cccc(N)c4)cc3c2C(C)C)cc(C)n1` [Example 103, N-(3-aminobenzyl)-2-(2,6-dimethylpyridin-4-yl)-3-isopropyl-N-methyl-1H-indole-5-carboxamide], the IC50 against human TLR7 worked out at 54 nM; at human TLR8 (setting [1]), 192 nM; at human TLR9 (setting [2]), 27100 nM.

Turning to `Cc1cc(-c2[nH]c3ccc(C(=O)N4CCC(N(C)C)CC4)cc3c2C(C)C)cc(C)n1` [Example 104, (4-(dimethylamino)piperidin-1-yl)(2-(2,6-dimethylpyridin-4-yl)-3-isopropyl-1H-indol-5-yl)methanone], the IC50 against human TLR7 was 14 nM; at human TLR8 (setting [1]), 12 nM; at human TLR9 (setting [2]) it was 373 nM.

Turning to `Cc1cc(-c2[nH]c3ccc(C(=O)N(C)CCO)cc3c2C(C)C)cc(C)n1` [Example 105, 2-(2,6-dimethylpyridin-4-yl)-N-(2-hydroxyethyl)-3-isopropyl-N-methyl-1H-indole-5-carboxamide], the values for the IC50 against human TLR7, at human TLR8 (setting [1]) and at human TLR9 (setting [2]) were 33 nM, 59 nM and 20800 nM, respectively.

Regarding `COCCN(C)C(=O)c1ccc2[nH]c(-c3cc(C)nc(C)c3)c(C(C)C)c2c1` [Example 106, 2-(2,6-dimethylpyridin-4-yl)-3-isopropyl-N-(2-methoxyethyl)-N-methyl-1H-indole-5-carboxamide], the results for the IC50 against human TLR7, on human TLR8 (setting [1]) and at human TLR9 (setting [2]) were 51 nM, 105 nM and over 50000 nM, respectively.

For the compound `Cc1cc(-c2[nH]c3ccc(C(=O)N4CC5CNCC5C4)cc3c2C(C)C)cc(C)n1` (stereo not drawn) [Example 107, (2-(2,6-dimethylpyridin-4-yl)-3-isopropyl-1H-indol-5-yl)(hexahydropyrrolo[3,4-c]pyrrol-2(1H)-yl)methanone, 2 HCl], the IC50 worked out at 73 nM at human TLR7, 58 nM at human TLR8 and 264 nM against human TLR9.

For `Cc1cc(-c2[nH]c3ccc(C(=O)N4CCNCC4)cc3c2C(C)C)cc(C)n1` [Example 108, (2-(2,6-dimethylpyridin-4-yl)-3-isopropyl-1H-indol-5-yl)(piperazin-1-yl)methanone], the IC50 at human TLR7 is 7.3 nM; at human TLR8 (setting [1]), 1.5 nM; at human TLR9 (setting [2]), 247 nM.

Consider `Cc1cc(-c2[nH]c3ccc(C(=O)N4CC5CN(C)CC5C4)cc3c2C(C)C)cc(C)n1` (stereo not drawn) [Example 109, (2-(2,6-dimethylpyridin-4-yl)-3-isopropyl-1H-indol-5-yl)(5-methylhexahydropyrrolo[3,4-c]pyrrol-2(1H)-yl)methanone], for which the IC50 was determined as 18 nM against human TLR7, 2.3 nM on human TLR8 (setting [1]) and 116 nM at human TLR9 (setting [2]).
